Assay results taken from PubChem BioAssay (NCI).
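A five-concentration, 48-hour dose response in 96-well plates underlies each endpoint, interpolated linearly between surrounding concentrations. GI50: concentration for 50% inhibition of growth. Definition used: TGI = concentration required for complete inhibition of growth.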

Experiments:
Assay in all cases: DTP human tumour cell line panel, 48 h
DU-145 prostate = system: DU-145 prostate
HCC-2998 colon = system: HCC-2998 colon
OVCAR-3 ovarian = system: OVCAR-3 ovarian
NCI/ADR-RES ovarian = system: NCI/ADR-RES ovarian
MOLT-4 leukemia = system: MOLT-4 leukemia
SNB-19 CNS = system: SNB-19 CNS
COLO 205 colon = system: COLO 205 colon
UACC-257 melanoma = system: UACC-257 melanoma
HL-60(TB) leukemia = system: HL-60(TB) leukemia
A498 renal = system: A498 renal
SK-OV-3 ovarian = system: SK-OV-3 ovarian
CCRF-CEM leukemia = system: CCRF-CEM leukemia
786-0 renal = system: 786-0 renal
SN12C renal = system: SN12C renal
SNB-75 CNS = system: SNB-75 CNS
ACHN renal = system: ACHN renal
HCT-116 colon = system: HCT-116 colon
CAKI-1 renal = system: CAKI-1 renal
HOP-62 NSCLC = system: HOP-62 NSCLC
U251 CNS = system: U251 CNS
SF-268 CNS = system: SF-268 CNS
HS 578T breast = system: HS 578T breast
SF-539 CNS = system: SF-539 CNS
EKVX NSCLC = system: EKVX NSCLC
M14 melanoma = system: M14 melanoma
BT-549 breast = system: BT-549 breast
SK-MEL-28 melanoma = system: SK-MEL-28 melanoma
SK-MEL-5 melanoma = system: SK-MEL-5 melanoma
MDA-MB-435 = system: MDA-MB-435
NCI-H460 lung = system: NCI-H460 lung
OVCAR-4 ovarian = system: OVCAR-4 ovarian
HT29 colon = system: HT29 colon
TK-10 renal = system: TK-10 renal
SR leukemia = system: SR leukemia
RXF 393 renal = system: RXF 393 renal
A549 NSCLC = system: A549 NSCLC
PC-3 prostate = system: PC-3 prostate
OVCAR-5 ovarian = system: OVCAR-5 ovarian
K-562 leukemia = system: K-562 leukemia
NCI-H23 lung = system: NCI-H23 lung
UACC-62 melanoma = system: UACC-62 melanoma
HCT-15 colon = system: HCT-15 colon
MDA-MB-231 breast = system: MDA-MB-231 breast
NCI-H522 lung = system: NCI-H522 lung
SW-620 colon = system: SW-620 colon
KM12 colon = system: KM12 colon
IGROV1 ovarian = system: IGROV1 ovarian
SF-295 CNS = system: SF-295 CNS
NCI-H226 lung = system: NCI-H226 lung
RPMI-8226 leukemia = system: RPMI-8226 leukemia
UO-31 renal = system: UO-31 renal
LOX IMVI melanoma = system: LOX IMVI melanoma
T-47D breast = system: T-47D breast
MCF7 breast = system: MCF7 breast
OVCAR-8 ovarian = system: OVCAR-8 ovarian
HOP-92 NSCLC = system: HOP-92 NSCLC
MALME-3M melanoma = system: MALME-3M melanoma
SK-MEL-2 melanoma = system: SK-MEL-2 melanoma

## CC(C)NCCCn1c(Sc2cc3c(cc2I)OCO3)nc2c(N)ncnc21
DU-145 prostate
  GI50: 47.3 nM
  TGI: > 100000 nM
HCC-2998 colon
  GI50: 280 nM
  TGI: 11600 nM
OVCAR-3 ovarian
  GI50: 585 nM
  TGI: > 100000 nM
NCI/ADR-RES ovarian
  GI50: 3660 nM
  TGI: > 100000 nM
MOLT-4 leukemia
  GI50: 91.5 nM
  TGI: > 91900 nM
SNB-19 CNS
  GI50: 646 nM
  TGI: > 100000 nM
COLO 205 colon
  GI50: 47.7 nM
  TGI: 10800 nM
UACC-257 melanoma
  GI50: 308 nM
  TGI: 13500 nM
HL-60(TB) leukemia
  GI50: 63.7 nM
  TGI: 6910 nM
A498 renal
  GI50: 435 nM
  TGI: 5600 nM
SK-OV-3 ovarian
  GI50: 45.1 nM
  TGI: > 100000 nM
CCRF-CEM leukemia
  GI50: 425 nM
  TGI: > 100000 nM
786-0 renal
  GI50: 515 nM
  TGI: > 100000 nM
SN12C renal
  GI50: 174 nM
  TGI: > 100000 nM
SNB-75 CNS
  GI50: 727 nM
  TGI: > 100000 nM
ACHN renal
  GI50: 297 nM
  TGI: > 100000 nM
HCT-116 colon
  GI50: 62.8 nM
  TGI: > 100000 nM
CAKI-1 renal
  GI50: 527 nM
  TGI: > 21100 nM
HOP-62 NSCLC
  GI50: 263 nM
  TGI: > 100000 nM
U251 CNS
  GI50: 128 nM
  TGI: > 100000 nM
SF-268 CNS
  GI50: 2100 nM
  TGI: > 100000 nM
HS 578T breast
  GI50: 1280 nM
  TGI: > 100000 nM
SF-539 CNS
  GI50: 858 nM
  TGI: > 68400 nM
EKVX NSCLC
  GI50: 2530 nM
  TGI: > 100000 nM
M14 melanoma
  GI50: 233 nM
  TGI: 20900 nM
BT-549 breast
  GI50: 1510 nM
  TGI: > 100000 nM
SK-MEL-28 melanoma
  GI50: 418 nM
  TGI: 44500 nM
SK-MEL-5 melanoma
  GI50: 462 nM
  TGI: 18000 nM
MDA-MB-435
  GI50: 91.9 nM
  TGI: 42000 nM
NCI-H460 lung
  GI50: 57.6 nM
  TGI: > 100000 nM
OVCAR-4 ovarian
  GI50: > 33300 nM
  TGI: > 100000 nM
HT29 colon
  GI50: 38.1 nM
  TGI: > 83200 nM
TK-10 renal
  GI50: 161 nM
  TGI: > 100000 nM
SR leukemia
  GI50: 60.2 nM
  TGI: > 100000 nM
RXF 393 renal
  GI50: 753 nM
  TGI: 48800 nM
A549 NSCLC
  GI50: 87.2 nM
  TGI: > 86600 nM
PC-3 prostate
  GI50: 133 nM
  TGI: > 100000 nM
OVCAR-5 ovarian
  GI50: 3020 nM
  TGI: > 100000 nM
K-562 leukemia
  GI50: 70.8 nM
  TGI: > 100000 nM
NCI-H23 lung
  GI50: 89.7 nM
  TGI: > 100000 nM
UACC-62 melanoma
  GI50: 368 nM
  TGI: > 41000 nM
HCT-15 colon
  GI50: 441 nM
  TGI: > 100000 nM
MDA-MB-231 breast
  GI50: 481 nM
  TGI: 61000 nM
NCI-H522 lung
  GI50: 58.8 nM
  TGI: > 100000 nM
SW-620 colon
  GI50: 59.2 nM
  TGI: > 100000 nM
KM12 colon
  GI50: 59.2 nM
  TGI: 755 nM
IGROV1 ovarian
  GI50: 88.5 nM
  TGI: 3520 nM
SF-295 CNS
  GI50: 143 nM
  TGI: 8520 nM
NCI-H226 lung
  GI50: 767 nM
  TGI: 79400 nM
RPMI-8226 leukemia
  GI50: 1530 nM
  TGI: > 47700 nM
UO-31 renal
  GI50: 323 nM
  TGI: 7130 nM
LOX IMVI melanoma
  GI50: 78.7 nM
T-47D breast
  GI50: 155 nM
  TGI: > 100000 nM
MCF7 breast
  GI50: 45.3 nM
  TGI: > 100000 nM
OVCAR-8 ovarian
  GI50: 156 nM
  TGI: > 100000 nM
HOP-92 NSCLC
  GI50: 289 nM
  TGI: 1620 nM
MALME-3M melanoma
  GI50: 124 nM
  TGI: 2120 nM
SK-MEL-2 melanoma
  GI50: 357 nM
  TGI: > 83200 nM
